The source of these data is publication PMC6936348, “Reactivation of Epstein–Barr virus by a dual-responsive fluorescent EBNA1-targeting agent with Zn^2+-chelating function” (Proceedings of the National Academy of Sciences of the …, 2019).

As usually defined, the stoichiometry N is a count of units in the complex or per binding partner.

Series [1] concerns EBNA1 monomer homodimerization. The settings on record: peptide P4; cited from earlier work. An excerpt: (§1) Epstein–Barr nuclear antigen 1 (EBNA1) is the only viral protein expressed in nearly all forms of EBV latency and its associated cancers which plays a vital role in the maintenance of viral genome ([3]). EBNA1 is also important for the transcriptional activation of some other EBV latency genes ([4]). Homodimerization of EBNA1 is known to be critical for EBNA1–DNA binding and the subsequent functions of oriP (latent origin of replication), including viral DNA replication and segregation, maintenance of the EBV episomal genome, and transcriptional activation ([5]). Thus, EBNA1 not only serves as ...

The next series deals with EBV-infected cells. As to conditions: peptide P4; cited from earlier work.
Description: as §1

The test system of series [2] is Rta, BMRF1, gp350/220 in NPC43 cells. Briefly: Western blot of lytic proteins in NPC43. In kind it is cell-based, Epstein–Barr virus. As to conditions: 10 µM, 7 d. An excerpt:
Fig. 5. EBV lytic induction analysis of EBV-positive tumors and cells in response to the EBNA1 probes. (A) IHC analysis of lytic proteins Zta, BMRF1, and VCA-p18 in the transplanted C666-1–derived tumor tissues as described in Fig. 4 E–G. Representative results are shown. […] Insets (in the red boxes) are the enlarged images to indicate the cellular localization of the 3 proteins. Negative control staining images are included for the mouse antibodies (mAb) against Zta and BMRF1 and for the rat antibody (rAb) against VCA-p18. Magnification, 400×. […] TPA/NaB (20 ng/mL TPA, 3 mM NaB) serves as a positive control of lytic induction. The presence of these 4 lytic proteins is indicated by red signals. The nuclei were stained with DAPI. […] Acetylated histone H3 (Ac-Histone H3) was also detected. β-actin serves as the loading control. […] The gene expression was analyzed by qRT-PCR. The fold change of relative gene expression after each treatment was compared with the solvent control (DMSO). Data are expressed as the means ± CI.
Western blot analysis of Zta, Rta, BMRF1, and gp350/220 was performed as reported ([41]). The Rta antibody was supplied from Argene (Verniolle) and the β-actin antibody for loading control was supplied from Cell Signaling Technology. Antibodies against Zta, BMRF1, gp350/220, Dicer1, and PML were the ones used for IF staining. A 1:400 dilution of the primary antibodies was used.

Series [3] has as its system EBV-positive NPC43, C666-1 and Raji cells. As to the kind of experiment: MTT cytotoxicity, EBV-positive cell panel. In kind it is cell-based. The settings on record: 1 to 20 µM, 5 d.
A short description of series [4]: Fluorescence response toward Zn2+. As to conditions: 2 µM probe, excitation 337 nm. The format is binding.
Another series has as its system C666-1 xenograft. As to the kind of experiment: C666-1 xenograft, intratumoral injection. The settings on record: 4 µg per injection twice weekly, 18 d, n = 5.
Series [5] deals with infectious EBV particles from HONE-1-EBV cells. As to the kind of experiment: EBV infection assay (Raji cell assay, virions from HONE-1-EBV). In kind it is cell-based, Epstein–Barr virus. As to conditions: 10 µM, 4 d, triplicate, P = 0.009 (ZRL5P4), P = 0.06 (ZRL5P2).
For series [6], the system named is EBV-positive C666-1 and NPC43 cells. As to the kind of experiment: Two-photon imaging, subcellular localization in EBV-positive cells. The settings on record: 10 µM, 3 h, two-photon λex 700 nm. The format is cell-based.
In a further series the test system is HeLa xenograft. The settings on record: 4 μg/injection every three days, 19 days, vs control.
Series [7] concerns the molecule itself. Briefly: self-association assay read by SDS-PAGE and anti-His Western blot. For orientation: A western blot detects proteins with antibodies after separation by electrophoresis.

Take CAhxYFMVFGGRrRK [P4]: in [1], the EBNA1 homodimerization entry was “able to interfere with the homodimerization of the EBNA1 monomer”. Moreover, in the series on EBV-infected cells, the EBV-infected cell growth result is “suppress EBV-infected cell growth”.
As to YFMVF [ZRL5P2], the “Rta and BMRF1 expression” value in series [2] is given as “much weaker than those of ZRL5P4”. Moreover, the “Growth-inhibitory effect, comparison” value in series [3] is “the least efficient one”. For the same molecule, the “Emission change upon addition of Zn2+” value in [4] (2 equiv. Zn2+, CH3CN/0.05 M Hepes pH 7.4, 50:50) is recorded as “slightly blue-shifted emission”. Moreover, the “Maximum emission wavelength, without Zn2+” value in series [4] (CH3CN/0.05 M Hepes pH 7.4, 50:50, absence of Zn2+) worked out at 448 nm. The “Maximum emission wavelength, with Zn2+” value in series [4] (CH3CN/0.05 M Hepes pH 7.4, 50:50, presence of Zn2+) is 445 nm. In addition, the Tumor growth entry in the series on C666-1 xenograft is “did not significantly affect tumor growth”. Also, the “Virion production versus DMSO control” value in series [5] came out at 2.6 fold. Also, the Subcellular localization entry in [6] is reported as “only found in the cytoplasm”. For the same molecule, in the series on HeLa xenograft, the Body weights entry was “did not cause any significant changes in body weights”.

B1: Full-length EBNA1 (residues 1 to 641) with an N-terminal His tag (ab138345; Abcam) (natural protein)
chain: MSDEGPGTGPGNGLGEKGDTSGPEGSGGSGPQRRGGDNHGRGRGRGRGRGGGRPGAPGGSGSGPRHRDGVRRPQKRPSCIGCKGTHGGTGAGAGAGGAGAGGAGAGGGAGAGGGAGGAGGAGGAGAGGGAGAGGGAGGAGGAGAGGGAGAGGGAGGAGAGGGAGGAGGAGAGGGAGAGGGAGGAGAGGGAGGAGGAGAGGGAGAGGAGGAGGAGAGGAGAGGGAGGAGGAGAGGAGAGGAGAGGAGAGGAGGAGAGGAGGAGAGGAGGAGAGGGAGGAGAGGGAGGAGAGGAGGAGAGGAGGAGAGGAGGAGAGGGAGAGGAGAGGGGRGRGGSGGRGRGGSGGRGRGGSGGRRGRGRERARGGSRERARGRGRGRGEKRPRSPSSQSSSSGSPPRRPPPGRRPFFHPVGEADYFEYHQEGGPDGEPDVPPGAIEQGPADDPGEGPSTGPRGQGDGGRRKKGGWFGKHRGQGGSNPKFENIAEGLRALLARSHVERTTDEGTWVAGVFVYGGSKTSLYNLRRGTALAIPQCRLTPLSRLPFGMAPGPGPQPGPLRESIVCYFMVFLQTHIFAEVLKDAIKDLVMTKPAPTCNIRVTVCSFDDGVDLPPWFPPMVEGAAAEGDDGDDGDEGGDGDEGEEGQE
notes: source: bought: Abcam (ab138345); not shown: His tag, N-terminal, kept
Consider B1, for which, in series [7], the “stoichiometry N” value was found to be 2.
